This is an account of results in patent US5622944A, “Testosterone prodrugs for improved drug delivery” (Affymax Technologies N.V., priority 1995, dated 1997).

SMILES strings stand for the structures. Structures can show the parent of a compound that is named as a salt.

A short description of series [1]: Water solubility (H2O sol). The conditions noted are these: for solubility: H2O sol.
The nature of series [2]: in vitro. The series is classed as cell-based, human. The conditions noted are these: human, dermal fibroblasts, MTT; for CC50 at 2 h: IC50 2 h (cytotoxicity), 2 h incubation; for CC50 at 16 h: IC50 16 h (cytotoxicity), 16 h incubation. The procedure:
As discussed above, the chemical modifier, when present in the subject in its free or released form, and in appropriately administered amounts, should preferably be non-toxic. Additionally, any further in vivo degradation products of the chemical modifier should be non-toxic, as well. Table 2 provides in vitro relative cytotoxicity data for a number of testosterone/chemical modifier complexes, prepared in accordance with the invention. The cytotoxicity assessment was carried out by examining the viability of human dermal fibroblasts in the presence of a number of testosterone/chemical modifier complexes in accordance with the present invention. Details of the experimental protocol are summarized in Example 27.
The viability of human dermal fibroblasts in the presence of the 17-hydroxy sterol/chemical modifier compounds was assayed using MTT (3-[4,5-dimethylthiazol-2-yl]-2,5-diphenyltetrazolium bromide) reduction to formazan by mitochondrial enzymes as an indicator of cytotoxicity (Swisher, et al.). Confluent fibroblast cells were incubated for 2 or 16 hours in the presence of increasing concentrations of drug complex. At the end of the incubation period, medium was replaced for 4 hours by medium containing the tetrazolium salt, MTT. Metabolism of MTT to a blue formazan was quantitated by spectrophotometry at 540 nm.

The format of series [3] is in vitro ADME, mouse. As to conditions: murine skin, active cells (ETm), 10 mM donor, 100 uA/cm^2, 6 h, 32° C. The procedure:
In vitro electrotransport of testosterone/chemical modifier complexes across hairless mouse skin was evaluated as described in Example 28. The experiments were conducted using modified Valia-Chien cells having 1.0 ml donor and 2.5 ml receptor cells. Anodic transport was carried out using a silver wire-based salt bridge in the donor compartment and a silver chloride cathode in the receptor. Cathodic transport was effected by reversing the electrode configuration. The cells were connected in series and a constant current and temperature were supplied to each cell.
After a predetermined period of time (6 h), aliquots were removed from the receiver phase for immediate analysis by HPLC to determine cumulative flux.
The electrotransport of testosterone/chemical modifier complexes was achieved using modified Valia-Chien cells (1.0 ml donor and 2.5 ml receptor cells). Full thickness, hairless mouse skin (Charles River Labs, Wilmington, Mass.) was soaked for one hour in phosphate buffered saline (PBS, pH=7.4) before placing between each compartment (dermal side of skin facing toward receptor). One passive (P1:data) and two or more (ETm :data) active cells were used to screen each compound.
A 10 mM (1 ml) aqueous solution of testosterone drug/prodrug was placed in the donor (unstirred) compartment and the receptor (stirred) was filled with 2.5 ml of PBS. In order to check for egress due to e.g. damaged skin, a zero hour sample of receptor ([…]) was taken one half hour after the drug solution was placed in the donor compartment. Replacement fluid of equal sample volume was added to the receptor compartment immediately after samples were taken.
Anodic electrotransport was achieved using a silver wire (immersed in a polyvinylalcohol-based salt bridge to minimize junction potential) in the donor compartment and a AgCl cathode in the receptor. […] The electrotransport cells were connected in series and constant current (100 uA/cm^2, […] for a skin area of 0.64 cm^2) and temperature (32° C.) were supplied to each cell. After six hours of active/passive transport, aliquots (200 ul) of the receptor were sampled and immediately analyzed by HPLC.
A standard plot of peak area and concentration for each compound was constructed using HPLC. The peak areas of the samples were determined and the concentrations calculated using the standard data. Cumulative flux was calculated using Quickbasic and reported in nmol/cm^2 /hr.

The nature of series [4]: in vitro. It is filed as in vitro ADME. The conditions noted are these: 37° C.; for half-life: human, serum. As for the experimental part:
The hydrolytic activity of the sterol prodrug may be evaluated by studies of the chemical or enzymatic conversion of the prodrug to the unmodified parent compound, as described in Example 26.
Generally, the sterol/chemical modifier complex is dissolved in a minimum amount of a suitable solvent, such as ethanol, and the resulting solution is added to a sample of human serum. Following incubation, aliquots are then removed at various time points and analyzed to determine the extent of hydrolysis. Table I herein lists the representative serum half-lives of a number of testosterone prodrugs according to the present invention.
The rates of conversion are readily determined, for example by spectrophotometric methods or by gas-liquid or high performance liquid chromatography. Half-lives and other kinetic parameters may then be calculated using standard techniques.
Determination of Testosterone Prodrug Hydrolysis in Serum
Stock solutions (6 mM) of the testosterone prodrugs were prepared in ethanol (dissolution was accomplished by vortexing, sonication, or warming at 37° C., as needed). If required for dissolution, one drop of a co-solvent such as dimethylsulfoxide, dimethylformamide or methanol was added. (Acetonitrile is undesirable because it deactivates the serum enzymes).
HPLC separation methods were established for each study by dilution of the above stock solutions (6 μl) in acetonitrile (1 ml) to form 36 μM solutions. Samples (10 μl) were injected onto a Nucleosil 5C8 column (250×4 mm ID) fitted with an additional guard column (11×4 mm ID) and eluted with a mobile phase of approximately 65% HPLC grade water and 35% trifluoroacetic acid in acetonitrile (0.1% TFA in acetonitrile). Exact proportions of the mobile phase eluents were adjusted in each case to give optimum separation and run times.
Freshly defrosted human serum (3 ml, Sigma) was warmed at 37° C. for five minutes and then the testosterone prodrug stock solution (60 μl) was added with vortexing. […] The aliquots were added to 800 μl of 2% zinc sulfate solution in a 1.5 ml disposable microcentrifuge tube, vortexed immediately and centrifuged at 14,000 RPM for 3 minutes. The supernatants (10 μl) were injected onto the HPLC and peak areas used to determine the percent of parent drug formed or percent of prodrug remaining. Serum blanks were prepared similarly by addition of serum to the zinc sulfate solution, followed by centrifugation. Initial (time=0) samples were prepared by adding serum to the zinc sulfate solution, followed by addition of the complex and separation by centrifugation. The time=0 samples, as well as the original stock solutions, were also used to assess the stability of the complex in the absence of enzyme. Half-lives were determined using the following equation : […]
and plotting time (x ordinate) versus the natural logarithm of percent remaining prodrug (y ordinate) to obtain the slope (m) and the y intercept (b).

As for `C[C@]12CC[C@H]3[C@@H](CCC4=CC(=O)CC[C@@]43C)[C@@H]1CC[C@@H]2O` [Code 1.0, 17β-hydroxyandrost-4-en-3-one, reference compound], the H2O sol in series [1] was 0.0 mg/mL. Also, in “in vitro [2]”, the CC50 (usually the concentration at which the toxic effect on the cells reaches its halfway point) at 2 h was > 1000 µM and the CC50 at 16 h was determined as 423 µM. The molecule further had a Degradation in the series “Degradation (%/d)” of 0 %/d.

For the molecule `CCCCCCCCCCCCCCCC(=O)O[C@H](CC(=O)O[C@H]1CC[C@H]2[C@@H]3CCC4=CC(=O)CC[C@]4(C)[C@H]3CC[C@]12C)C[N+](C)(C)C` [Code 1.1, testosterone-17β-(O-palmitoyl-L-carnitinate), chloride salt], the solubility – broadly, the concentration that dissolves in the medium under given conditions – in series [1] came to 26 mg/mL. Moreover, in the series “in vitro [2]”, the CC50 at 2 h was < 10 µM and the CC50 at 16 h is < 10 µM. Besides, the “Flux, active electrotransport (ET)” value in series [3] came out at 0 nmol/cm^2 /hr. This molecule also yielded a Degradation in the series “Degradation (%/d)” of 0 %/d.

Turning to `CC(=O)OC(CC(=O)O[C@H]1CC[C@H]2[C@@H]3CCC4=CC(=O)CC[C@]4(C)[C@H]3CC[C@]12C)C[N+](C)(C)C` (stereo partly shown) [Code 1.2], in “in vitro [4]” (HPLC), the half-life (usually the time needed for the level to fall by half in the phase considered) is 96 h. This molecule displayed a solubility in series [1] of 22 mg/mL. In the series “in vitro [2]”, the CC50 at 2 h came to 91.6 µM and half-maximal cytotoxicity (CC50 at 16 h) was put at 34.4 µM. Also, in series [3], the “Flux, active electrotransport (ET)” value was 7.3 ± 5.8 nmol/cm^2 /hr. In “Degradation (%/d)”, this molecule displayed a Degradation of 0 %/d.

In “in vitro [4]” (HPLC), `C[C@]12CC[C@H]3[C@@H](CCC4=CC(=O)CC[C@@]43C)[C@@H]1CC[C@@H]2OC(=O)OCOC(=O)CNC(=O)OCOC(=O)CCCCC[N+](C)(C)C` [Code 1.8] registered a half-life of 0.0667 h.

Consider `COC(=O)[C@H](COC(=O)O[C@H]1CC[C@H]2[C@@H]3CCC4=CC(=O)CC[C@]4(C)[C@H]3CC[C@]12C)[N+](C)(C)C` [Code 1.9, testosterone-17β-(N,N,N-trimethyl-L-serine methyl ester) carbonate, tetrafluoroborate salt], for which the half-life in “in vitro [4]” (HPLC) is ~0.00125 h.

Turning to `COC(=O)[C@H](COC(=O)O[C@H]1CC[C@H]2[C@@H]3CCC4=CC(=O)CC[C@]4(C)[C@H]3CC[C@]12C)[N+](C)(C)C` [Code 2.0, testosterone-17β-(N,N,N-trimethyl-L-serine methyl ester) carbonate, bromide salt], in “in vitro [4]” (human serum, HPLC), the Serum half-life amounted to 5 s.

`C[C@]12CC[C@H]3[C@@H](CCC4=CC(=O)CC[C@@]43C)[C@@H]1CC[C@@H]2OC(=O)OCOC(=O)CC[N+](C)(C)C` [Code 2.1, testosterone-17β-(N,N,N-trimethyl-β-alaninyloxymethyl)carbonate,iodide salt] showed a half-life in the series “in vitro [4]” (HPLC) of 0.0106 h.

For the molecule `C[C@]12CC[C@H]3[C@@H](CCC4=CC(=O)CC[C@@]43C)[C@@H]1CC[C@@H]2OC(=O)c1cccnc1` [Code 2.7, Testosterone-17β-nicotinate], the half-life in “in vitro [4]” (HPLC) was ~840 h. For the same molecule, the H2O sol in series [1] came to 0.0 mg/mL. In “in vitro [2]”, the CC50 at 2 h was > 1000 µM and the CC50 at 16 h is > 1000 µM.

With `CN(C)CCCC(=O)O[C@H]1CC[C@H]2[C@@H]3CCC4=CC(=O)CC[C@]4(C)[C@H]3CC[C@]12C` [Code 3.0], in “in vitro [4]” (footnote 2: prodrug remaining, ~50% testosterone and ~50% unknown formed), the half-life is 106 h.

Molecule `CN(C)CCCC(=O)O[C@H]1CC[C@H]2[C@@H]3CCC4=CC(=O)CC[C@]4(C)[C@H]3CC[C@]12C` [Code 3.1, testosterone-17β-[4-N,N-dimethylaminobutyrate], hydrochloride salt] showed a solubility in series [1] of 22 mg/mL. Also, in the series “in vitro [2]”, the midpoint of cytotoxicity, the CC50 at 2 h, lay at 255 µM and the CC50 at 16 h turned out to be 145 µM. The “Flux, active electrotransport (ET)” value in series [3] was determined as 0.7 ± 0.2 nmol/cm^2 /hr. The Degradation in the series “Degradation (%/d)” worked out at 0 %/d.

As to `CN(C)CCc1ccc(OC(=O)O[C@H]2CC[C@H]3[C@@H]4CCC5=CC(=O)CC[C@]5(C)[C@H]4CC[C@]23C)cc1` [Code 3.3, testosterone-17β-hordenine carbonate], the half-life in the series “in vitro [4]” (HPLC) was 8.2 h.

In the series “in vitro [4]” (HPLC), `COC(=O)[C@H](COC(=O)O[C@H]1CC[C@H]2[C@@H]3CCC4=CC(=O)CC[C@]4(C)[C@H]3CC[C@]12C)N(C)C` [Code 3.5] gave a half-life of 0.783 h.

In “in vitro [4]” (HPLC), `C[C@]12CC[C@H]3[C@@H](CCC4=CC(=O)CC[C@@]43C)[C@@H]1CC[C@@H]2OC(=O)c1ccccn1` [Code 3.9, testosterone-17β-picolinate, hydrochloride salt] had a half-life of 12.2 h.

Consider `C[n+]1ccccc1C(=O)O[C@H]1CC[C@H]2[C@@H]3CCC4=CC(=O)CC[C@]4(C)[C@H]3CC[C@]12C` [Code 4.0], for which the half-life in “in vitro [4]” (HSO4^- salt) was 1.08 h. Besides, the half-life in “in vitro [4]” (iodide (I--) salt) was found to be 1.17 h. The solubility in series [1] stood at 0.9 mg/mL. Further, in “in vitro [2]”, the cytotoxic concentration (CC50) at 2 h was 330 µM and the CC50 at 16 h was 41.1 µM.

The molecule `C[C@]12CC[C@H]3[C@@H](CCC4=CC(=O)CC[C@@]43C)[C@@H]1CC[C@@H]2OC(=O)CCC(=O)NCCS(=O)(=O)O` [Code 4.2, testosterone-17β-[taurinesuccinamide ester], triethvlammonium salt] showed a half-life in “in vitro [4]” (HPLC) of 24 h. The “Flux, active electrotransport (ET)” value in series [3] came out at 2.8 ± 3.7 nmol/cm^2 /hr.

Consider `C[C@]12CC[C@H]3[C@@H](CC=C4C=C(OC(=O)CCC[N+](C)(C)C)CC[C@@]43C)[C@@H]1CC[C@@H]2OC(=O)CCC[N+](C)(C)C` [Code 4.3, testosterone-3-enol, 17β-ol bis[4-(N,N,N-trimethylammonio)butyrate], dibromide salt], for which the half-life in the series “in vitro [4]” (footnote 3: prodrug remaining, 60% [2.3] formed, no other products seen) is 7.8 h. For the same molecule, the “Flux, active electrotransport (ET)” value in series [3] came out at 1.0 ± 0.6 nmol/cm^2 /hr.

Regarding `C[C@]12CC[C@H]3[C@@H](CC=C4C=C(OC(=O)CC[N+](C)(C)C)CC[C@@]43C)[C@@H]1CC[C@@H]2OC(=O)OCC[N+](C)(C)C` [Code 4.4, testosterone-3-enol, 17β-ol 3-(N,N,N-trimethyl-β-alanine ester) 17-(choline carbonate), dibromide salt], in the series “in vitro [4]” (footnote 1: prodrug remaining, no testosterone formed), the half-life is 0.0383 h. The “Flux, active electrotransport (ET)” value in series [3] is 0.2 ± 0.0 nmol/cm^2 /hr.
